In general, IC50 refers to the concentration that inhibits the measured activity by half.

Each structure is given as a SMILES string.

The assay has as its target T1, KCNT1 (KNa1.1, Slack) (Homo sapiens, UniProt Q5JUK3).
T1 construct: expressed in transfected cells; host or cells: HEK-TREX (tetracycline-inducible HEK cell line)
T1 sequence (Q5JUK3 1-1230): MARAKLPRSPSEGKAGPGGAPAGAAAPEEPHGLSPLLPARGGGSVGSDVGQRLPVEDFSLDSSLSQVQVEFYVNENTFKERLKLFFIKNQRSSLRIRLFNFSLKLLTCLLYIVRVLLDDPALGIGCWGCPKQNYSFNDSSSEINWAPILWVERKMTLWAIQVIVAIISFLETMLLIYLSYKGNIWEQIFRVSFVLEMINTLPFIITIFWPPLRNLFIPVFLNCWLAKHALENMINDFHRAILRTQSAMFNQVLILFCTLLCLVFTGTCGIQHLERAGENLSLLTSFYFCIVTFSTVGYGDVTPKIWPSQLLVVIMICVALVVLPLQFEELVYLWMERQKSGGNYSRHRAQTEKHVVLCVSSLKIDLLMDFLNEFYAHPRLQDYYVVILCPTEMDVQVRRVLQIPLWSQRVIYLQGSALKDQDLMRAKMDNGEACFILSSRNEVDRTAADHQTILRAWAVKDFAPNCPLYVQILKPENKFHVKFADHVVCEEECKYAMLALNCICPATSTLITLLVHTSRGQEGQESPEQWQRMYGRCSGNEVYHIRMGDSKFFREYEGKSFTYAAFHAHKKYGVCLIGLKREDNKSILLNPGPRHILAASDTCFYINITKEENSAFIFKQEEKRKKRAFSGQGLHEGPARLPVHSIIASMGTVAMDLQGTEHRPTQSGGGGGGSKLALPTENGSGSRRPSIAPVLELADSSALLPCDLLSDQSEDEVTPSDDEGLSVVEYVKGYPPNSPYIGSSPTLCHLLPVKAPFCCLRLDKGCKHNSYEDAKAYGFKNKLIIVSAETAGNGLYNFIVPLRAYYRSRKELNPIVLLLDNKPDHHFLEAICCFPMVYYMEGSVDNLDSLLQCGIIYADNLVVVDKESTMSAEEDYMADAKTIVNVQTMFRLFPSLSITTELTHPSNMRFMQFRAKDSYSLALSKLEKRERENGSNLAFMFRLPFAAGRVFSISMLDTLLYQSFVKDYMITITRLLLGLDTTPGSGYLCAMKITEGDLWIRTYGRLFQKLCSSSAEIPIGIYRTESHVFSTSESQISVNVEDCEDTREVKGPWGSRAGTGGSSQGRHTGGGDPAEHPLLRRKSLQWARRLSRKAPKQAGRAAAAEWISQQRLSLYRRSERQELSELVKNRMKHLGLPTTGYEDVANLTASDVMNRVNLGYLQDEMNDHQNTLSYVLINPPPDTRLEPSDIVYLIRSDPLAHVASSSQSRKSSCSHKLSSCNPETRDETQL
As to the kind of experiment: KCNT1 patch clamp assay (SyncroPatch 384PE automated patch clamp). Type of assay: cell-based. The following applies: tetracycline inducible HEK-TREX cell line; perforated patch; step from −80 mV to 0 mV; room temperature; read-out: KCNT1-WT IC50. The method, boiled down:
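Tetracycline-inducible HEK-TREX cells; perforated-patch (10 μM escin) population recordings at room temperature, holding −80 mV with 100 ms step to 0 mV.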
(Patch clamp records ionic current or voltage across a cell membrane.)
`CC(NC(=O)c1cc(C(F)(F)F)nn1C)c1nc(-c2ccnc(C3CCC3)c2)no1` (single isomer, unassigned) [Compound 279]: the IC50 was at most 1000 nM.
`C[C@H](NC(=O)c1ccnn1CC1CC1)c1nc(-c2ccnc(C3CCCC3)c2)no1` [Compound 309, (S)—N-(1-(3-(2-cyclopentylpyridin-4-yl)-1,2,4-oxadiazol-5-yl)ethyl)-1-(cyclopropylmethyl)-1H-pyrazole-5-carboxamide]: the IC50 is at most 1000 nM.
For the compound `C[C@H](NC(=O)c1cc(C(F)(F)F)nn1C)c1nc(-c2ccnc(OC3CC3)c2)no1` [Compound 207, (S)—N-(1-(3-(2-cyclopropoxypyridin-4-yl)-1,2,4-oxadiazol-5-yl)ethyl)-1-methyl-3-(trifluoromethyl)-1H-pyrazole-5-carboxamide], the IC50 is at most 1000 nM.
As for `Cc1nn(C(C)C)cc1C(=O)N[C@@H](C)c1nc(-c2ccc(Cl)c(F)c2)no1` [Compound 86], the IC50 is at most 1000 nM.
On to `Cn1nc(C2CC2)cc1C(=O)N[C@H](c1nc(-c2cccc(F)c2)no1)C1CC1` (single isomer, unassigned) [Compound 109], for which the IC50 is at most 1000 nM.
As for `C[C@@H](NC(=O)OC(C)(C)C)c1nc(-c2ccnc(C(F)(F)F)c2)no1` [Compound 296, tert-butyl (R)-(1-(3-(2-(trifluoromethyl)pyridin-4-yl)-1,2,4-oxadiazol-5-yl)ethyl)carbamate], the IC50 was in the range of 1000 to 20000 nM.
Turning to `Cn1nc(C(F)(F)F)cc1C(=O)NC(c1nc(-c2cccc(F)c2)no1)C1COC1` (stereo not drawn) [Compound 147], the IC50 was in the range of 1000 to 20000 nM.
The result for `C[C@H](NC(=O)c1cc(C(F)(F)F)nn1C)c1nc(-c2ccnc(C3CCCC3)c2)no1` [Compound 307, (S)—N-(1-(3-(2-cyclopentylpyridin-4-yl)-1,2,4-oxadiazol-5-yl)ethyl)-1-methyl-3-(trifluoromethyl)-1H-pyrazole-5-carboxamide] reads at most 1000 nM.
Regarding `Cc1cccc(-c2noc(C(C)NC(=O)c3c(C)cnn3C(C)C)n2)c1` (stereo not drawn) [Compound 55], the IC50 lay in the range of 1000 to 20000 nM.
On to `Cc1nn(CC(F)F)cc1C(=O)N[C@@H](C)c1nc(-c2cccc(F)c2)no1` [Compound 163], for which the IC50 lay within 1000 to 20000 nM.
For `CC[C@H](NC(=O)c1cc(C(F)(F)F)nn1C(F)F)c1nc(-c2cccc(F)c2)no1` [Compound 112], the IC50 was at most 1000 nM.
Under `CC(NC(=O)c1cc(C(F)(F)F)nn1C)c1nc(-c2ccc(F)c(F)c2)no1` (stereo not drawn) [Compound 67] stands at most 1000 nM.
In the case of `CC[C@H](NC(=O)c1ccnn1-c1ccccc1)c1nc(-c2ccnc(C)c2)no1` [Compound 215, (S)—N-(1-(3-(2-methylpyridin-4-yl)-1,2,4-oxadiazol-5-yl)propyl)-1-phenyl-1H-pyrazole-5-carboxamide], the IC50 fell in the range of 1000 to 20000 nM.
`C[C@H](NC(=O)c1cc(C(F)(F)F)nn1C(F)F)c1nc(-c2cccc(Cl)c2)no1` (single isomer, unassigned) [Compound 83]: the IC50 is 1000 to 20000 nM.
Take `Cn1nc(C(F)(F)F)cc1C(=O)N[C@H](CC(=O)NCCO)c1nc(-c2cccc(F)c2)no1` [Compound 122]: the IC50 is at least 20000 nM.
Turning to `C[C@H](NC(=O)c1ccnn1C1CCC1)c1nc(-c2ccnc(C3CC3)c2)no1` [Compound 304, 2-cyclobutyl-N-[(1S)-1-[3-(2-cyclopropyl-4-pyridyl)-1,2,4-oxadiazol-5-yl]ethyl]pyrazole-3-carboxamide], the IC50 is at most 1000 nM.
The result for `COc1cccc(-c2noc([C@H](C)NC(=O)c3cc(C(F)(F)F)nn3C)n2)c1` [Compound 196, (S)—N-(1-(3-(3-methoxyphenyl)-1,2,4-oxadiazol-5-yl)ethyl)-1-methyl-3-(trifluoromethyl)-1H-pyrazole-5-carboxamide] reads at most 1000 nM; that for `Cn1nc(C(F)(F)F)cc1C(=O)NC(CC(N)=O)c1nc(-c2cccc(F)c2)no1` (single isomer, unassigned) [Compound 129, N-[3-amino-1-[3-(3-fluorophenyl)-1,2,4-oxadiazol-5-yl]-3-oxo-propyl]-2-methyl-5-(trifluoromethyl)pyrazole-3-carboxamide], at least 20000 nM.
Under `C[C@H](NC(=O)c1cn(C)nc1C(C)(C)C)c1nc(-c2cccc(F)c2)no1` [Compound 162] stands 1000 to 20000 nM; under `C[C@H](NC(=O)c1ccnn1C1CCCC1)c1nc(-c2ccnc(C3CC3)c2)no1` [Compound 270], at most 1000 nM.
Regarding `COCCC(NC(=O)c1cc(C(F)(F)F)nn1C)c1nc(-c2cccc(F)c2)no1` (stereo not drawn) [Compound 170], the IC50 is at most 1000 nM.
For `CC(NC(=O)c1cc(C(F)(F)F)nn1C)c1nc(-c2cccc(CC#N)c2)no1` (stereo not drawn) [Compound 178, N-(1-(3-(3-(cyanomethyl)phenyl)-1,2,4-oxadiazol-5-yl)ethyl)-1-methyl-3-(trifluoromethyl)-1H-pyrazole-5-carboxamide], the IC50 fell in the range of 1000 to 20000 nM.
Consider `COC1CN(c2cc(-c3noc([C@H](C)NC(=O)c4cc(C(F)(F)F)nn4C)n3)ccn2)C1` [Compound 213, (S)—N-(1-(3-(2-(3-methoxyazetidin-1-yl)pyridin-4-yl)-1,2,4-oxadiazol-5-yl)ethyl)-1-methyl-3-(trifluoromethyl)-1H-pyrazole-5-carboxamide], for which the IC50 lay in the range of 1000 to 20000 nM.
In the case of `C[C@H](NC(=O)c1cc(C(F)(F)F)nn1C)c1nc(-c2ccnc(C#N)c2)no1` [Compound 267, (S)—N-(1-(3-(2-cyanopyridin-4-yl)-1,2,4-oxadiazol-5-yl)ethyl)-1-methyl-3-(trifluoromethyl)-1H-pyrazole-5-carboxamide], the IC50 lay within 1000 to 20000 nM.
Take `C[C@H](NC(=O)c1cc(C2CC2)nn1C)c1nc(-c2cccc(F)c2)no1` (single isomer, unassigned) [Compound 94]: the IC50 is at least 20000 nM.
As for `COc1cc(-c2noc([C@H](C)NC(=O)OC(C)(C)C)n2)cc(C)n1` [Compound 287, tert-butyl (S)-(1-(3-(2-methoxy-6-methylpyridin-4-yl)-1,2,4-oxadiazol-5-yl)ethyl)carbamate], the IC50 is at most 1000 nM.
Turning to `Cn1nc(C2CC2)cc1C(=O)NC(CO)c1nc(-c2cccc(F)c2)no1` (stereo not drawn) [Compound 54], the IC50 is at least 20000 nM.
As for `C[C@H](NC(=O)c1cc(C(F)(F)F)nn1C)c1nc(-c2ccnc(CO)c2)no1` [Compound 258, N-[(1S)-1-[3-[2-(hydroxymethyl)-4-pyridyl]-1,2,4-oxadiazol-5-yl]ethyl]-2-methyl-5-(trifluoromethyl)pyrazole-3-carboxamide], the IC50 is 1000 to 20000 nM.
The result for `C[C@H](NC(=O)c1cc(C(F)(F)F)nn1C)c1nc(-c2ccnc(CS(C)(=O)=O)c2)no1` [Compound 264, 2-methyl-N-[(1S)-1-[3-[2-(methylsulfonylmethyl)-4-pyridyl]-1,2,4-oxadiazol-5-yl]ethyl]-5-(trifluoromethyl)pyrazole-3-carboxamide] reads at least 20000 nM.
With `Cc1cccc(-c2noc(C(C)NC(=O)c3cc(C)nn3C(C)C)n2)c1` (stereo not drawn) [Compound 22], the IC50 was at most 1000 nM.
On to `CC(C)Oc1cc(-c2noc([C@H](C)NC(=O)OC(C)(C)C)n2)ccn1` [Compound 286, tert-butyl (S)-(1-(3-(2-isopropoxypyridin-4-yl)-1,2,4-oxadiazol-5-yl)ethyl)carbamate], for which the IC50 is at most 1000 nM.
The result for `CC(NC(=O)c1cc(C(F)(F)F)nn1C)c1nc(-c2ccc(Cl)cc2Cl)no1` (stereo not drawn) [Compound 75] reads at most 1000 nM; that for `CC(NC(=O)c1cc(C(F)(F)F)nn1C)c1nc(-c2cc(F)cc(F)c2)no1` (stereo not drawn) [Compound 103], at most 1000 nM; that for `Cc1nn(C(C)C)cc1C(=O)N[C@@H](C)c1nc(-c2cc(F)cc(Cl)c2)no1` [Compound 91], at most 1000 nM.
Consider `CC(c1nc(-c2cccc(CO)c2)no1)N(C)C(=O)c1cc(C(F)(F)F)nn1C` (stereo not drawn) [Compound 177, N-(1-(3-(3-(hydroxymethyl)phenyl)-1,2,4-oxadiazol-5-yl)ethyl)-N,1-dimethyl-3-(trifluoromethyl)-1H-pyrazole-5-carboxamide], for which the IC50 was at least 20000 nM.
As for `Cn1nc(C(F)(F)F)cc1C(=O)N[C@H](CCS(C)(=O)=O)c1nc(-c2cccc(F)c2)no1` (single isomer, unassigned) [Compound 143], the IC50 is at least 20000 nM.

(Values after US20220259193A1, “KCNT1 INHIBITORS AND METHODS OF USE” (Praxis Precision Medicines, Inc., priority 2019, published 2022).)
